Entries after “also recorded” stand apart in the source; their conditions may differ.
How the values were obtained:
[1] = tested on: intestinal cells; test: Primary culture of embryonal mouse intestinal cells, double stain with antibodies to insulin and glucagon; format: cell-based; details: 10 nmol/l, cultured 8 days; for generation of insulin-positive cells in intestinal cells: 17.5 day-old embryonal mouse cells
Description: (§1) Cells originating from various kinds of tissues of a 17.5 day-old embryonal mouse were divided into a group added with GLP-1(1-37) (10 nmol/l) or GLP-1(7-37) (10 nmol/l) and a non-addition control group, and were then cultured. After the cells had been cultured for 8 days, a double stain was performed using antibodies to insulin and glucagon. Specifically, the process was performed as follows.
(§2) Specimens of pancreas, liver, stomach, duodenum, and small intestine (including the jejunum, ileum, and colon) tissues were collected from a 17.5 day-old C57BL/6 embryonal mouse under a microscope. Then, those tissues were immersed in a Hanks solution (Hanks Balanced Solution, Gibco BRL, Co., Ltd., without containing Ca) containing 5 mM of CaCl2 (pH 7.4) and 0.1% of collagenase, and were then incubated at 37° C. for 10 to 20 minutes, followed by gently pipetting for digestion, respectively.
The obtained cells were washed with a culture medium and then inoculated in a 6-well plate for tissue culture at a cell density of 5×10^4 cells/cm^2. After 24 hours from the start of the culture, GLP-1(1-37) or GLP-1(7-37) was added to the culture. Furthermore, after the cells had been continuously cultured for 8 days, the cells were washed three times with phosphate buffer (hereinafter, referred to as “PBS”) and then fixed by immersing in a 4% paraformaldehyde-phosphate buffer for 5 minutes and a 25% acetone/methanol solution for 1 minute. It should be noted that GLP-1(1-37) and GLP-1(7-37) were purchased from SIGMA.
Subsequently, each well was washed with 0.05% Tween 20/PBS, followed by immersing in 0.2% Triton X100 for 1 hour. After that, anti-insulin goat antibody (Santa Cruz) and anti-glucagon mouse antibody (Sigma) were added to each well, and the whole was incubated at 4° C. for 16 hours, followed by washing the well. Then, Alexa 488-binding anti-goat IgG donkey antibody (Molecular Probes) or Cy3-binding anti-mouse IgG donkey antibody (Jackson Immuno Research Laboratories Inc.) was added to each well, and the whole was then incubated at 4° C. for 4 hours. […]

[2] = tested on: pancreas, stomach, liver, and duodenal cells; test: Primary culture of embryonal mouse pancreas, stomach, liver and duodenal cells, double stain with antibodies to insulin and glucagon; format: cell-based; details: 10 nmol/l, cultured 8 days
Description: as §1, §2
The obtained cells were washed with a culture medium and then inoculated in a 6-well plate for tissue culture at a cell density of 5×10^4 cells/cm^2. After 24 hours from the start of the culture, GLP-1(1-37) or GLP-1(7-37) was added to the culture. […]

[3] = tested on: intestinal epithelium cells; test: In vivo GLP-1(1-37) administration to pregnant mouse, insulin/glucagon immunostain of newborn intestine sections; details: 10 nmol i.p. to pregnant mouse daily, embryonal day 10.5 to 17.5
Description: GLP-1(1-37) (10 nmol) was intraperitoneally injected to a pregnant mouse at the same time every day over a seven-day embryonal period from day 10.5 to 17.5. After birth, tissue sections from the small and large intestine of a newborn mouse were double-stained using antibodies to insulin and glucagon. Specifically, the double stain was performed as follows.
Each tissue of the small intestine (including jejunum and ileum) and the large intestine was immersed overnight in a 4% paraformaldehyde-phosphate buffer at 4° C., followed by embedding in O.C.T. compound to prepare section samples. The section samples were dried and fixed with acetone. Subsequently, the section samples were dried overnight at −20° C. and then washed with PBS-Tween 20, followed by immersing in 0.2% Triton X100 for 1 hour. After that, using anti-insulin goat antibody (Santa Cruz) or anti-glucagon mouse antibody (Sigma), and Alexa 488-binding anti-goat IgG donkey antibody or Cy3-binding anti-mouse IgG donkey antibody, the immunostain of insulin and glucagon was carried out, respectively.

[4] = tested on: jejunum; test: Organ culture of embryonal mouse jejunum, insulin in the culture medium; format: cell-based; details: 50 nM GLP-1(1-37) with 50 nM PDGF, jejunum of 14.5-day embryonal mouse in collagen gel
Description: (§3) The jejunum collected from a 14.5-day embryonal mouse was embedded in type I collagen gel (Nitta Gelatin Inc.) and was then grown in organ culture in the presence of 50 nM GLP-1(1-37) and 50 nM PDGF (Platelet Derived Growth Factor). The amount of insulin in the culture medium was determined using a mouse insulin-detecting kit (Shibayagi) according to the attached protocol.

[5] = tested on: diabetes model mouse; test: Transplanting cultured jejunum into STZ diabetes model mouse, blood sugar level; format: in vivo
Description: as §3
The jejunum at the second day from the start of the organ culture was transplanted in the abdominal cavity of a diabetes model mouse. The mouse was changed to a type I diabetes model by the administration of 200 mg/kg streptozotocin (hereinafter, referred to as “STZ”) three days before the transplantation, and the blood sugar level of the mouse was 300 to 350 mg/dl. Similarly, jejunal cells cultured in the absence of GLP-1 (1-37) were transplanted into a diabetes model mouse.

[6] = tested on: cultured intestinal cells; test: RT-PCR gene expression in organ culture of jejunum, concentration-dependent effects; format: cell-based, mouse; details: 8 days
Description: Using a quantitative PCR method, the effects of GLP-1(1-37) on the cultured intestinal cells were analyzed in detail as described below.
Four concentrations of GLP-1(1-37), 0, 5, 10, and 50 nmol/l, were prepared and the organ culture of jejunum was performed by the same way as that of Example 3. After the jejunum had been cultured for 8 days, analyzed using the RT-PCR were the expression amounts of insulin genes (preproinsulin I and preproinsulin II), transcription factor group [neurogenin 3 (ngn3), neuroD/BETA 2, pax-4, Nkx 6.1, and hepatocyte nuclear factor 6 (HNF-6)] that controls the differentiation of secretory cells in the pancreas, a GLP-1 receptor (GLP-1 R), preproglucagon, pancreas duodenal homobox 1 (pdx-1), and hypoxanthine phosphoribosyl transferase (HPRT) as a positive control.
The RT-PCR was performed according to the method described in the literature (Hepatology, 32: 1230-1239) using primers. The primers used herein were as follows.
GLP-1R (SEQ ID NOS: 3 and 4), preproinsulin 1 (SEQ ID NOS: 5 and 6), preproinsulin II (SEQ ID NOS: 7 and 8), preproglucagon (SEQ ID NOS: 9 and 10), pdx-1 (SEQ ID NOS: 11 and 12), ngn3 (SEQ ID NOS: 13 and 14), neuroD (SEQ ID NOS: 15 and 16), pax-4 (SEQ ID NOS: 17 and 18), Nkx 6.1 (SEQ ID NOS: 19 and 20), HNF-6 (SEQ ID NOS: 21 and 22), and HPRT (SEQ ID NOS: 23 and 24).

[7] = tested on: jejunal cells; test: Comparison between GLP-1 and other growth factors, RT-PCR in jejunal cells; format: cell-based, mouse; details: GLP-1(1-37) 10 nm/l with activin A, beta cellulin, HGF, EGF; 8 days
Description: In the presence or absence of GLP-1(1-37) (10 nm/l), jejunal cells were cultured by the same way as that of paragraph <1>, except that activin A, beta cellulin, hepatocyte growth factor (HGF), and epidermal growth factor (EGF), which had been reported to control the growth and differentiation of secretory cells in the pancreas, were added. Then, the expression amounts of various kinds of genes were analyzed (a culture period of 8 days).

[8] = tested on: STZ diabetes model rat; test: Blood sugar decrease effect on STZ diabetes model rat; format: in vivo
Description: GLP-1 (1-37) (80 μg/head) or PBS was intraperitoneally administered to a Wistar male rat once a day over a ten-day period from day 2-12 after birth. On the 7th day of the administration (9-day old), 75 mg/kg of STZ was subcutaneously administered to induce diabetes. In order to prepare normal controls, some PBS-administered rats were administered citrate buffer instead of STZ. Subsequently, the rats were allowed to ingest feed and water freely. In the 42nd day, blood of each rat was drawn from the tail vein and the blood sugar level was measured. The measurement of the blood sugar level was performed using the whole blood sample by the glucose oxidase method in accordance with a general method.

[9] = tested on: preproinsulin I and preproinsulin II mRNA; test: Insulin gene expression in organs of GLP-1(1-37)-administered STZ diabetes model rat (RT-PCR); format: in vivo; details: 80 μg/head i.p. once a day for ten days, 42nd day
Description: GLP-1(1-37) was confirmed to have the blood sugar decrease effect, so that the presence or absence of insulin production in the intestine of the GLP-1(1-37) administered group was determined by the method described below. GLP-1(1-37)(80 μg/head) or PBS was intraperitoneally administered to each of 6 Wistar male rats once a day over a ten-day […] period from day 2 to 12. On the 7th day of the administration (9-day old), 75 mg/kg of STZ was subcutaneously administered to induce diabetes. In order to prepare normal controls, some PBS-administered rats were administered citrate buffer instead of STZ. Subsequently, the rats were allowed to ingest feed and water freely. On the 42nd day, autopsy was performed to collect the pancreas, stomach, intestine, and lung. After RNA was prepared from each organ using ISOGEN (NIPPONGENE), mRNA of preproinsulin I and mRNA of preproinsulin II were quantified by the RT-PCR method. Oligonuculeotides shown in SEQ ID NOS: 24 and 25 were used for preproinsulin I, and oligonuculeotides shown in SEQ ID NOS: 26 and […] were used for preproinsulin II as PCR primers.

[10] = background art; cited from earlier work
[11] = tested on: GLP-1R; test: Experiment of inhibiting GLP-1 function with exendin (9-39), RT-PCR in jejunal cells; format: cell-based, mouse; details: 8 days
Description: Jejunal cells were cultured by the same way as that of paragraph <1>, except that 0, 10, 100, or 1,000 nmol/l of exendin (9-39), which was a GLP-1R antagonist, was simultaneously added together with GLP-1(1-37) (10 nmol/l). Then, the expression amounts of the insulin gene and other various kinds of genes were analyzed (a culture period of 8 days).

[12] = STZ mouse transplanted with jejunal cells treated with GLP-1(1-37), baseline 300 to 350 mg/dl

Question: Which results are given for “GLP-1(1-37): 37-amino acid peptide having the amino acid sequence from position 92 to position 128 of a preproglucagon peptide; purchased from SIGMA (HDEFERHAEGTFTSDVSSYLEGQAAKEFIAWLVKGRG; Glucagon-like peptide 1; UniProt P01275 92-128, looked up, fragment)”?
Answer: glucagon staining of the insulin-positive cells [1]: strongly glucagon-positive; generation of insulin-positive cells in intestinal cells [1]: insulin-positive cells were only observed; also recorded: effects on the induction; number of insulin-positive cells and glucagon-positive cells versus non-addition group [2]: no difference; insulin-positive intestinal epithelium cells in small and large intestine of newborn mouse [3]: many insulin-positive intestinal epithelium cells were observed; number of insulin positive cells, small intestine compared with large intestine [3]: higher; insulin secretion into the culture medium [4]: insulin secretion was observed; change of blood sugar level after transplantation ([5]; STZ mouse (300 to 350 mg/dl) transplanted with jejunal cells treated with GLP-1(1-37)): decrease in blood sugar level was observed; blood sugar level after eight weeks from the transplantation [5, 12]: 75 to 100 mg/dL; blood sugar level after four weeks from the transplantation [5, 12]: 125 to 225 mg/dL; expression of GLP-1R, preproglucagon and pdx-1 versus non addition group ([6]; 0, 5, 10, 50 nmol/l): no change in expression; expression of transcription factor group controlling differentiation of secretory cells in the pancreas ([6]; 0, 5, 10, 50 nmol/l): increase in expression; expression of the insulin gene (preproinsulin I, preproinsulin II) ([6]; 5 nmol/l, FIG. 1): expression of the insulin gene was observed; expression of preproglucagon and pdx-1 [7]: no change; expression of preproinsulin I, preproinsulin II, and ngn3 [7]: high expression; blood sugar level compared to diabetes control group ([8]; 80 μg/head i.p. once a day for ten days, 42nd day): decreased significantly; blood sugar level ([8]; 80 μg/head i.p. once a day, day 2-12 after birth, STZ 75 mg/kg s.c., measured 42nd day, n = 6): 430 ± 89 ^##; expression of preproinsulin genes in the pancreas, stomach, and lung [9]: no expression was observed; expressions of preproinsulin I gene and preproinsulin II gene in the intestine [9]: significantly increased; activity as incretin [10]: weak activity

Question: Which results are given for “GLP-1(7-37) (HAEGTFTSDVSSYLEGQAAKEFIAWLVKGRG; Glucagon-like peptide 1; UniProt P01275 98-128, looked up, fragment) [reference compound]”?
Answer: generation of insulin-positive cells in intestinal cells [1]: can not effect on the induction; number of insulin-positive cells and glucagon-positive cells versus non-addition group [2]: no difference

Question: For exendin (9-39), which “expression of preproinsulin I, preproinsulin II, and ngn3” value ([11]; exendin (9-39) 10, 100 or 1,000 nmol/l added together with GLP-1(1-37) 10 nmol/l) is on record?
Answer: The value was “hardly observed”.

Question: What about the “expression of preproglucagon and pdx-1” value ([11]; exendin (9-39) added together with GLP-1(1-37) 10 nmol/l) of the same substance?
Answer: The value was “not influenced”.

— US7423019B2, “Agent for inducing conversion of intestinal cells into insulin-producing cells and antidiabetic drug” (Ajinomoto Co., Inc., priority 2003, dated 2008)
